Reference: patent US20230248741A1, “Compositions and Methods for Lowering Triglycerides in a Subject with Reduced Kidney Function and Diabetes Mellitus” (Amarin Pharmaceuticals Ireland Limited, priority 2018, published 2023)

What was measured:
Type in all cases: in vivo, human
[1] = tested on: patients with fasting TG ≥200 and <500 mg/dl despite statin therapy; assay: ANCHOR study, entire population: fasting TG; details: 4 g/day
Experimental: (§1) A multi-center, placebo-controlled, randomized, double-blind, 12-week study is performed to evaluate the efficacy and safety of >96% E-EPA in patients with fasting triglyceride levels ≥200 mg/dl and <500 mg/dl despite statin therapy (the mean of two qualifying entry values needs to be ≥185 mg/dl and at least one of the values needs to be ≥200 mg/dl). The primary objective of the study is to determine the efficacy of >96% E-EPA 2 g daily and 4 g daily, compared to placebo, in lowering fasting TG levels in patients with high risk for cardiovascular disease and with fasting TG levels ≥200 mg/dL and <500 mg/dL, despite treatment to LDL-C goal on statin therapy.
The primary efficacy variable for the double-blind treatment period is percent change in TG from baseline to Week 12 endpoint. […]

[2] = tested on: patients with eGFR <90 mL/min/1.73 m^2 for ≥3 months and hsCRP ≥2.0 mg/L; assay: ANCHOR post-hoc (eGFR <90, hsCRP ≥2.0 mg/L): renal parameters; details: 4 g/day
Experimental: CVD-related (e.g., atherogenic) parameters were analyzed in a post-hoc study of 152 patients from the multi-center, placebo-controlled, randomized double-blind, 12-week study described in Example 1. These 152 patients have reduced kidney reduced function (e.g., eGFR<90 mL/min/1.73 m^2 for ≥3 months) and hsCRP≥2.0 mg/L.

[3] = tested on: patients with diabetes mellitus and eGFR <90 mL/min/1.73 m^2 for ≥3 months; assay: ANCHOR post-hoc: lipids/lipoproteins, apolipoproteins, oxidation and inflammation markers
Experimental: as §1
The primary efficacy variable for the double-blind treatment period is percent change in TG from baseline to Week 12 endpoint. The secondary efficacy variables for the double-blind treatment period include the following: • Percent changes in total cholesterol (TC), high-density lipoprotein cholesterol (HDL-C), LDL-C, calculated non-HDL-C, and very low-density lipoprotein cholesterol (VLDL-C) from baseline to Week 12 endpoint; • Percent change in very low-density lipoprotein TG from baseline to Week 12; • Percent changes in apolipoprotein A-I (apo A-I), apolipoprotein B (apo B), and apo A-I/apo B ratio from baseline to Week 12; • Percent changes in lipoprotein(a) from baseline to Week 12; • Percent changes in LDL particle number and size, measured by nuclear magnetic resonance, from baseline to Week 12; • Percent change in remnant-like particle cholesterol from baseline to Week 12; • Percent change in oxidized LDL from baseline to Week 12; • Changes in FPG and HbA1c from baseline to Week 12; • Change in insulin resistance, as assessed by the homeostasis model index insulin resistance, from baseline to Week 12; • Percent change in lipoprotein associated phospholipase A2 (Lp-PLA2) from baseline to Week 12; • Change in intracellular adhesion molecule-1 from baseline to Week 12; • Change in interleukin-2 from baseline to Week 12; • Change in plasminogen activator inhibitor-1 from baseline to Week 12. Note: this parameter will only be collected at sites with proper storage conditions; • Change in hsCRP from baseline to Week 12; and • Change in plasma concentration and red blood cell membrane content of fatty acid from baseline to Week 12 including EPA, DPA, DHA, AA, dihomo-γ-linolenic acid (DGLA), the ratio of EPA/AA, ratio of oleic acid/stearic acid (OA/SA), and the ratio of total omega-3 acids over total omega-6 acids.
CVD-related (e.g., atherogenic) parameters were analyzed in a post-hoc study of 198 patients from the multi-center, placebo-controlled, randomized double-blind, 12-week study described in Example 1. These 198 patients have reduced kidney reduced function (e.g., eGFR<90 mL/min/1.73 m^2 for ≥3 months) and diabetes mellitus.
Objective. The primary objective of this post-hoc study was to determine if and how 4 g of daily of >96% E-EPA, compared to placebo, affects patients with reduced kidney function, diabetes mellitus, and high triglyceride levels. The secondary objective was to determine if and how 4 g daily >96% E-EPA, compared to placebo, affected CVD-related parameters in patients having a high risk for CVD and fasting TG levels […]200 mg/dL and <500 mg/dL, despite treatment to LDL-C goal on statin therapy. These CVD-parameters include lipid levels, lipoprotein levels, and inflammatory markers, such as TC, LDL-C, HDL-C, VLDL-C, VLDL-TG, RLP-C, non-HDL-C, Apo B, Apo C-III, Lp-PLA2, hsCRP, and ox-LDL, and in plasma and RBC EPA concentration. CVD-parameters were analyzed for median difference in percent change from baseline to week 12 in subjects receiving 4 g/day of E-EPA and those receiving the placebo.
Subjects: 98 patients were randomized to E-EPA and 100 patients were randomized to placebo. In total, atherogenic parameters were analyzed in all 198 patients, 56% of which were male and 97% of which were white. The mean age of the 198 patients was 63 years old. […]

[4] = 4 g/day group, before treatment
[5] = 4 g/day, week 12, Hodges-Lehmann

In the case of CC/C=C\C/C=C\C/C=C\C/C=C\C/C=C\CCCC(=O)OCC [E-EPA, ethyl eicosapentaenoate], the “median TGs reduction from baseline” value [1] is reported as −21.5%, the “serum creatinine after 12 weeks” value ([2]; before 0.9 mg/dL, no change) is reported as 0.9 mg/dL and the “albumin after 12 weeks” value ([2]; before 4.5 g/dL, no statistically significant change) is reported as 4.4 g/dL. For the same compound, the “eGFR after 12 weeks” value ([2]; increase from 72.4) was 78.5 mL/min/1.73 m^2, the “RLP-C Baseline, median” value ([3]; 4 g/day group (n = 34), before treatment) was 14.0 mg/dL and the “Ox-LDL Baseline, median (IQR)” value ([3]; 4 g/day group (n = 41), before treatment) was 54.2 (15.8) U/L. The “Apo B Baseline, median (IQR)” value [3, 4] was 92.0 (22.0) mg/dL, the “Apo C-III Baseline, median (IQR)” value [3, 4] was 42.0 (20.0) mg/dL and the “HDL-C Baseline, median” value [3, 4] was 36.0 mg/dL. The “LDL-C Baseline, median” value [3, 4] was 82.5 mg/dL, the “Lp-PLA2 Baseline, median (IQR)” value [3, 4] was 178.0 (54.0) ng/mL and the “Non-HDL-C Baseline, median” value [3, 4] was 128.5 mg/dL. The “TC Baseline, median” value [3, 4] was 169.5 mg/dL, the “TG Baseline, median” value [3, 4] was 262.5 mg/dL and the “VLDL-C Baseline, median” value [3, 4] was 42.0 mg/dL. For the same compound, the “VLDL-TG Baseline, median” value [3, 4] was 186.0 mg/dL, the “hsCRP Baseline, median (IQR)” value [3, 4] was 2.2 (2.9) mg/L and the “reduction of triglycerides compared to placebo” value ([3]; 4 g/day, 12 weeks, P<0.0001) was “about 19.7%”. For the same compound, the “Apo B Change From Baseline, %, median (IQR)” value ([3]; 4 g/day, week 12) was −3.5 (17.0) %, the “Apo B End of Treatment, median (IQR)” value ([3]; 4 g/day, week 12) was 88.0 (25.0) mg/dL and the “Apo C-III Change From Baseline, %, median (IQR)” value ([3]; 4 g/day, week 12) was −12.3 (45.6) %. The “Apo C-III End of Treatment, median (IQR)” value ([3]; 4 g/day, week 12) was 36.5 (23.0) mg/dL, the “HDL-C Change From Baseline, %, median” value ([3]; 4 g/day, week 12) was −3.0% and the “HDL-C End of Treatment, median” value ([3]; 4 g/day, week 12) was 37.0 mg/dL. For the same compound, the “LDL-C Change From Baseline, %, median” value ([3]; 4 g/day, week 12) was −2.1%, the “LDL-C End of Treatment, median” value ([3]; 4 g/day, week 12) was 83.0 mg/dL and the “Lp-PLA2 Change From Baseline, %, median (IQR)” value ([3]; 4 g/day, week 12) was −14.4 (16.5) %. The “Lp-PLA2 End of Treatment, median (IQR)” value ([3]; 4 g/day, week 12) was 160.0 (52.0) ng/mL, the “Non-HDL-C Change From Baseline, %, median” value ([3]; 4 g/day, week 12) was −6.0% and the “Non-HDL-C End of Treatment, median” value ([3]; 4 g/day, week 12) was 120.5 mg/dL. The “Ox-LDL Change From Baseline, %, median (IQR)” value ([3]; 4 g/day, week 12) was −8.2 (17.8) %, the “Ox-LDL End of Treatment, median (IQR)” value ([3]; 4 g/day, week 12) was 49.5 (12.8) U/L and the “TC Change From Baseline, %, median” value ([3]; 4 g/day, week 12) was −5.2%. For the same compound, the “TC End of Treatment, median” value ([3]; 4 g/day, week 12) was 160.5 mg/dL, the “TG Change From Baseline, %, median” value ([3]; 4 g/day, week 12) was −19.3% and the “TG End of Treatment, median” value ([3]; 4 g/day, week 12) was 209.8 mg/dL. For the same compound, the “VLDL-C Change From Baseline, %, median” value ([3]; 4 g/day, week 12) was −12.3%, the “VLDL-C End of Treatment, median” value ([3]; 4 g/day, week 12) was 36.5 mg/dL and the “VLDL-TG Change From Baseline, %, median” value ([3]; 4 g/day, week 12) was −19.2%. For the same compound, the “VLDL-TG End of Treatment, median” value ([3]; 4 g/day, week 12) was 146.0 mg/dL, the “hsCRP Change From Baseline, %, median (IQR)” value ([3]; 4 g/day, week 12) was −2.4 (81.7) % and the “hsCRP End of Treatment, median (IQR)” value ([3]; 4 g/day, week 12) was 1.7 (3.0) mg/L. For the same compound, the “Apo B Median Difference in % Change From Baseline vs. Placebo” value [3, 5] was −10.1, <0.0001%, the “Apo C-III Median Difference in % Change From Baseline vs. Placebo” value [3, 5] was −19.0, 0.0006% and the “HDL-C Median Difference in % Change From Baseline vs. Placebo” value [3, 5] was −7.0, 0.0009%. For the same compound, the “LDL-C Median Difference in % Change From Baseline vs. Placebo” value [3, 5] was −7.1, 0.0375%, the “Lp-PLA2 Median Difference in % Change From Baseline vs. Placebo” value [3, 5] was −16.6, <0.0001% and the “Non-HDL-C Median Difference in % Change From Baseline vs. Placebo” value [3, 5] was −13.7, <0.0001%. For the same compound, the “Ox-LDL Median Difference in % Change From Baseline vs. Placebo” value [3, 5] was −16.2, <0.0001%, the “RLP-C Median Difference in % Change From Baseline vs. Placebo” value [3, 5] was −35.4, 0.0029% and the “TC Median Difference in % Change From Baseline vs. Placebo” value [3, 5] was −12.5, <0.0001%. The “TG Median Difference in % Change From Baseline for Icosapent Ethyl 4 g/day vs. Placebo” value [3, 5] was −19.7, <0.0001%, the “VLDL-C Median Difference in % Change From Baseline vs. Placebo” value [3, 5] was −19.0, 0.0006% and the “VLDL-TG Median Difference in % Change From Baseline vs. Placebo” value [3, 5] was −22.3, <0.0001%. The “hsCRP Median Difference in % Change From Baseline vs. Placebo” value [3, 5] was −24.4, 0.0120%, the “RLP-C Change From Baseline, %, median” value ([3]; 4 g/day, week 12, n = 34) was −28.9% and the “RLP-C End of Treatment, median” value ([3]; 4 g/day, week 12, n = 34) was 9.5 mg/dL.
